One data set concerns ASK1. The experiment in a line: Western blot of phospho(Thr838)-ASK1 and total ASK1. In kind it is cell-based, human. The conditions noted are these: A2780, 24 h at 72 h IC50 dose, vs controls. The procedure:
(§1) After drug treatments, cells were lysed in RIPA buffer supplemented with a cocktail of protease and phosphatase inhibitors. […] To favor the electrophoretic separation, 25% sample loading buffer (SLB) was added to the cell lysates. Here, 20 µg samples of proteins from controls and treated cells were loaded on 4–20% pre-cast SDS-PAGE gels and blotted onto PVDF membranes. Primary antibodies Bcl-2 (1:1000 dilution,#sc-7382, Santa Cruz, Dallas, Texas USA), Bax (1:1000 dilution, #sc-493, Santa Cruz), OXPHOS cocktail (1:1000 dilution, #ab110413, AbCam, Cambridge, UK), citrate synthase (1:1000 dilution, #sc-515640, Santa Cruz), ASK1 (1:1000 dilution, #sc-390275, Santa Cruz), phospho(Thr838)-ASK1 (1:1000 dilution, #CPA6042, Cohesion Biosciences, London, UK), AKT (1:1000 dilution, #sc-5298, Santa Cruz), and phospho(Ser473)-AKT (1:1000 dilution, #GTX128414, GeneTex, Irvine, CA, USA) were added to 2% non-fat dry milk in PBS-tween solution, while PVDF membranes were incubated overnight at 4 °C. Then, membranes were treated with horseradish peroxidase (HRP)-conjugated secondary antibodies (1:5000 dilution, Santa Cruz) and immunoreactive bands were detected with an ECL kit detection system on an Amersham Imager 600 (GE Healthcare, Chicago, IL, USA). For the quantification, a densitometric analysis of the bands was performed using ImageJ2 software version 2.0.0-rc-64 [23]. The intensities of the immunostained bands were normalized on the Coomassie brilliant blue R-250-stained total protein from the same PVDF membrane.
On the technique in general: Immunoblotting shows a protein as a band on a membrane.

Another data set relates to caspase-8. The data set can be described thus: FAM-FLICA caspase-8 activation, flow cytometry. In kind it is cell-based, human. As to conditions: A2780, 72 h at 72 h IC50 dose, compared to controls. The method, then:
(§2) In addition, caspase-3, caspase-8, and caspase-9 activation was assessed in treated and untreated cells. Likewise, cells were trypsinized, washed with PBS, and suspended in FAM-FLICATM caspase solution (FAM-DEVD-FMK caspase FLICA kit, ImmunoChemistry Technologies, MN 55431 USA) for 30 min at 37 °C. Cells were then washed twice with PBS and analyzed using a FACSCantoII flow cytometer (BD Biosciences, New Jersey, USA).

The subject of data set [1] is intracellular ROS in A2780 cells. The data set can be described thus: Intracellular ROS evaluation (H2DCF-DA, flow cytometry). Type of data set: cell-based, human. As to conditions: A2780, 48 h treatment at 72 h IC50 dose, H2DCFDA. The procedure:
Within the cell, H2DCF-DA is de-acetylated by cellular esterases to a non-fluorescent compound, which becomes fluorescent once it is oxidized by cellular ROS into 2′,7′-dichlorofluorescein (DCF). Cells were trypsinized, washed, and incubated with 5 µM H2DCFDA for 30 min in the dark. Then, cells were washed again and immediately analyzed using a FACSCantoII (BD Biosciences, New Jersey, USA) flow cytometer.
On the technique in general: Flow cytometry measures light scatter and fluorescence of single cells or particles in a stream.

The test system of the next data set is AKT. The data set can be described thus: Western blot of phospho(Ser473)-AKT and total AKT. Type of data set: cell-based, human. The conditions noted are these: A2780, 24 h at 72 h IC50 dose, vs controls. The method, then: as §1
The subject of data set [2] is mitochondrial membrane potential (Δψm) in A2780 cells. The experiment in a line: Mitochondrial membrane potential (TMRM, flow cytometry). In kind it is cell-based, human. The conditions noted are these: A2780, 48 h exposure at 72 h IC50 dose, compared to controls. The procedure: The mitochondrial membrane potential (Δψm) was measured using tetramethylrhodamine methyl ester perchlorate (TMRM), a lipophilic potentiometric fluorescent dye that distributes between the mitochondria and cytosol in proportion to Δψm by virtue of its positive charge. The amount of accumulated dye in the mitochondria, and consequently the signal intensity, is a direct function of mitochondrial potential. […] Cells were then trypsinized, washed with PBS, and incubated with 100 nM TMRM for 20 min in the dark at 37 °C. After labelling, cells were washed again, suspended in PBS, and analyzed using a FACSCantoII flow cytometer (BD Biosciences, New Jersey, USA).

In data set [3] the test system is lactate production of A2780 cells. The experiment in a line: Lactate production assay (K-LATE kit) in culture medium. In kind it is cell-based, human. As to conditions: A2780, 24 h treatment at 72 h IC50 dose, vs controls. The method, then: The lactate amount was measured in cell culture media after 24 h of treatment with K-LATE kit (Megazyme, Bray, Ireland) according to the data sheet provided by the manufacturer. Lactate content was normalized on the protein content of the same sample.

In a further data set the test system is caspase-3. The data set can be described thus: FAM-FLICA caspase-3 activation, flow cytometry. Type of data set: cell-based, human. As to conditions: A2780, 72 h at 72 h IC50 dose, compared to controls. The procedure:
as §2

In data set [4] the test system is A2780 human ovarian cancer cell line. The experiment in a line: MTT antiproliferative assay on A2780 cells. As to conditions: for IC50: 72 h of treatment, MTT assay, mean ± SD of three experiments, read-out: Half-maximal inhibitory concentration (IC50), A2780; for cytotoxic potency on A2780 higher than that of AuL12 (fold): from 72 h IC50 values on A2780. In kind it is cell-based. The method, then:
The inhibition of cell proliferation by Au2phen, Auoxo6, and AuL12 on A2780 cell line was evaluated through MTT (3-(4,5-dimethylthiazol-2-yl)-2,5-diphenyltetrazolium bromide) test. Viable cells can convert MTT into formazan, which is coloured and detectable at 595 nm. Exponentially growing cells were seeded in 96 well-microplates at a density of 8 × 10^3 for 24 h and then gold compounds were added in fresh RPMI medium at concentrations ranging from 0.003 to 100 µM and incubated for 72 h. On the day of the test, cells were treated with 0.5 mg/mL MTT for 1 h at 37 °C. Following precipitation, blue formazan was dissolved in DMSO, and the optical density was read in a microplate reader interfaced with Microplate Manager/PV version 4.0 software (BioRad Laboratories, Hercules, USA). From the absorbance measurements, the half-maximal inhibitory concentration (IC50) value of each compound on A2780 cells was calculated using GraphPad Prism software version 6.0 (Graphpad Holdings, LLC, USA). The same protocol was applied on non-tumor cell lines, i.e., HEK and PNT1 cells.
The effects of these 72 h exposure IC50 doses on A2780 cell viability were also evaluated using an MTT time course assay at 12, 24, 48, and 72 h of drug exposure. The experimental protocol described above was applied.

With `Cc1ccc2ccc3ccc(C)[n+]4c3c2[n+]1[Au-]41[O][Au-]2([O]1)[n+]1c(C)ccc3ccc4ccc(C)[n+]2c4c31.F[P-](F)(F)(F)(F)F.F[P-](F)(F)(F)(F)F` [Au2phen, ((2,9-dimethyl-1,10-phenanthroline)2Au2(µ-O)2)(PF6)2], the “enhancement of phospho-ASK1 levels (phosphorylated-ASK1/total ASK1 ratio)” value in the data set on ASK1 was “about 15%”. For the same molecule, the “cells showing caspase-8 activation” value in the data set with caspase-8 was “around 50%”. Further, in data set [1], the “ROS increase vs control cells” value is listed as “about 3.7 fold”. The “reduction of phospho-AKT levels (phosphorylated-AKT/total AKT ratio)” value with AKT is recorded as “about 12%”. Also, the “cells bearing lower Δψm (low TMRM fluorescence)” value (shortened to “cells bearing lower Δψm”) in data set [2] is “about 26%”. Moreover, the “increase of lactate level in medium” value in data set [3] was “about 20%”. Moreover, the “caspase-3 activation (fluorescence intensity)” value (“caspase-3 activation” for short) in the data set with caspase-3 is ~ 40%. In data set [4], the IC50 amounted to 800 ± 20 nM and the “cytotoxic potency on A2780 higher than that of AuL12 (fold)” value stood at 5 fold.
Consider `CCOC(=O)CN(C)C1=[S+][Au-]([Br])([Br])[S]1` [AuL12, dibromo(ethylsarcosinedithiocarbamate)gold(III), reference compound], for which the “enhancement of phospho-ASK1 levels (phosphorylated-ASK1/total ASK1 ratio)” value in the data set with ASK1 was “about 25%”. Also, the “cells showing caspase-8 activation” value in the data set on caspase-8 is ~ 30%. Moreover, in data set [1], the “ROS increase vs control cells” value is given as “about 2.8 fold”. Besides, the “reduction of phospho-AKT levels (phosphorylated-AKT/total AKT ratio)” value in the data set with AKT is reported as around 17%. Also, the “cells bearing lower Δψm” value in data set [2] is on record as around 36%. Besides, the “increase of lactate level in medium” value in data set [3] is reported as around 29%. In the data set on caspase-3, the “caspase-3 activation” value is reported as ~ 40%. Moreover, the IC50 in data set [4] was 4000 ± 30 nM.
Consider `Cc1cccc2[n+]1[Au-]1([O][Au-]3([O]1)[n+]1c(C)cccc1-c1cccc(C)[n+]13)[n+]1c(C)cccc1-2.F[P-](F)(F)(F)(F)F.F[P-](F)(F)(F)(F)F` [Auoxo6, ((6,6′-dimethyl-2,2′-bipyridine)2Au2(µ-O)2)(PF6)2], for which the “enhancement of phospho-ASK1 levels (phosphorylated-ASK1/total ASK1 ratio)” value in the data set on ASK1 is “about 23%”. Also, in the data set on caspase-8, the “cells showing caspase-8 activation” value is reported as around 70%. The “ROS increase vs control cells” value in data set [1] was “about 2.8 fold”. In addition, the “reduction of phospho-AKT levels (phosphorylated-AKT/total AKT ratio)” value with AKT is reported as around 19%. The “cells bearing lower Δψm” value in data set [2] worked out at 17%. In addition, the “increase of lactate level in medium” value in data set [3] is reported as around 25%. Besides, the “caspase-3 activation” value in the data set on caspase-3 was “about 80%”. In data set [4], the IC50 was 1140 ± 180 nM and the “cytotoxic potency on A2780 higher than that of AuL12 (fold)” value was found to be 3.5 fold.

(Values after publication PMC8389655, “Au2phen and Auoxo6, Two Dinuclear Oxo-Bridged Gold(III) Compounds, Induce Apoptotic Signaling in Human Ovarian A2780 Cancer Cells” (Biomedicines, 2021).)
